US12583839B2, “PD-L1 antagonist compound” (ADLAI NORTYE BIOPHARMA CO., LTD., priority 2019, dated 2026)

Molecular target: T1, PD-1/PD-L1 (Homo sapiens, UniProt Q9NZQ7)
T1 construct: 60535 (PD-1/NFAT-Reporter-Jurkat); host or cells: CHO cells expressing PD-L1; Jurkat cells expressing PD-1
Assay: Detection of biological activity of PD-1/PD-L1 signaling inhibition at the cellular level (NFAT luciferase reporter, PD-1/NFAT-Reporter-Jurkat cells co-cultured with TCR activator/PD-L1-CHO cells)
Type: cell-based
Details: PD-1/NFAT-Reporter-Jurkat + TCR activator/PD-L1-CHO co-culture, 6 hours; Atezolizumab as positive control
Outline: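 CHO cells expressing PD-L1 and a TCR activator were seeded overnight at 37° C, pre-treated with compound for 30 minutes, then co-cultured 6 hours with Jurkat cells carrying PD-1 and an NFAT-luciferase reporter. Luminescence was read, and inhibition % was normalised between 0.1% DMSO and about 10 nM atezolizumab controls.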

T1 sequence (Q9NZQ7 19-290): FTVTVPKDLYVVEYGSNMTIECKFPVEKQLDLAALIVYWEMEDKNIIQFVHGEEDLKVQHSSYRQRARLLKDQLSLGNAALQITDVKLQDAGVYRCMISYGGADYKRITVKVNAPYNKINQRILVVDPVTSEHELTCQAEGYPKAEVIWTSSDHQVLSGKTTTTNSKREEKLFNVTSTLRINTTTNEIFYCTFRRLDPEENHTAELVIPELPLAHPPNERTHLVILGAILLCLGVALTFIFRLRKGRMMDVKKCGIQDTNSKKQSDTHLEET

EC50 | Compound
393 nM | COc1cc(-c2cccc(-c3c(Cl)ccc4c3cnn4Cc3cc(OC)c(CN[C@@H](CO)C(=O)O)cc3Cl)c2Cl)ccc1CNC[C@@H]1CCC(=O)N1 [Compound 154]
145 nM | COc1cc(Cn2ncc3c(-c4cccc(-c5cc(Cl)c(CNC[C@@H]6CCC(=O)N6)c(OC)c5)c4Cl)cccc32)c(Cl)cc1CN(C)CC1CCC(C(=O)O)CC1 (stereo partly drawn) [Compound 155]
90 nM | COc1cc(Cn2ncc3c(-c4cccc(-c5ccc(CNC[C@@H]6CCC(=O)N6)c(OC)n5)c4Cl)cccc32)c(Cl)c(F)c1CN(C)C12CCC(C(=O)O)(CC1)CC2 [Compound 157]
1010 nM | COc1cc(-c2cccc(-c3ccc(Cl)c4c3cnn4Cc3cc(OC)c(CN[C@@H](CO)C(=O)O)cc3Cl)c2Cl)ccc1CNC[C@@H]1CCC(=O)N1 [Compound 158]
37 nM | CCN(Cc1cc(Cl)c(Cn2ncc3c(-c4cccc(-c5cc(F)c(CNC[C@@H]6CCC(=O)N6)c(OC)c5)c4Cl)cccc32)cc1OC)C12CCC(C(=O)O)(CC1)CC2 [Compound 159]
46 nM | COc1cc(Cn2ncc3c(-c4cccc(-c5cc(F)c(CNC[C@@H]6CCC(=O)N6)c(OC)c5)c4Cl)cccc32)c(Cl)cc1CN(C)C12CCC(CC(=O)O)(CC1)CC2 [Compound 160]
75 nM | COc1cc(Cn2ncc3c(-c4cccc(-c5cc(F)c(CNC[C@@H]6CCC(=O)N6)c(OC)c5)c4C)cccc32)c(Cl)cc1CN(C)C12CCC(C(=O)O)(CC1)CC2 [Compound 161]
44 nM | COc1cc(Cn2ncc3c(-c4cccc(-c5cc(F)c(CNC[C@@H]6CCC(=O)N6)c(OC)c5)c4Cl)cccc32)c(Cl)cc1CN(C)[C@H]1CC[C@H](O)CC1 [Compound 162]
26 nM | COc1cc(-c2cccc(-c3cccc4c3cnn4Cc3nc(OC)c(CN(C)[C@H]4CC[C@H](C(=O)O)CC4)cc3Cl)c2Cl)cc(F)c1CNC[C@@H]1CCC(=O)N1 [Compound 163]
105 nM | COc1cc(Cn2ncc3c(-c4cccc(-c5ccc(CNC[C@@H]6CCC(=O)N6)c(OC)n5)c4C)cccc32)c(Cl)cc1CN(C)C12CCC(C(=O)O)(CC1)CC2 [Compound 164]
49 nM | COc1cc(-c2cccc(-c3cccc4c3cnn4Cc3nc(OC)c(CN(C)C45CCC(C(=O)O)(CC4)CC5)cc3Cl)c2C)cc(F)c1CNC[C@@H]1CCC(=O)N1 [Compound 166]
53 nM | COc1cc(Cn2ncc3c(-c4cccc(-c5cc(F)c(CNC[C@H]6CCC(=O)N6)c(OC)c5)c4Cl)cccc32)c(Cl)cc1CN(C)C12CCC(C(=O)O)(CC1)CC2 [Compound 167]
69 nM | COc1cc(Cn2ncc3c(-c4cccc(-c5cc(F)c(CNC[C@@H]6CCCC(=O)N6)c(OC)c5)c4Cl)cccc32)c(Cl)cc1CN(C)C12CCC(C(=O)O)(CC1)CC2 [Compound 168]
59 nM | COc1nc(-c2cccc(-c3cccc4c3cnn4Cc3nc(OC)c(CN(C)C45CCC(C(=O)O)(CC4)CC5)cc3Cl)c2C)ccc1CNC[C@@H]1CCC(=O)N1 [Compound 169]
265 nM | COc1cc(Cn2ncc3c(-c4cccc(-c5cnc(CNC[C@@H]6CCC(=O)N6)c(OC)n5)c4C)cccc32)c(Cl)cc1CN(C)C12CCC(C(=O)O)(CC1)CC2 [Compound 170]
40 nM | COc1cc(Cn2ncc3c(-c4cccc(-c5cc(F)c(CNC[C@@H]6CCC(=O)N6)c(OC)c5)c4Cl)cccc32)c(Cl)cc1CN(CCO)[C@H]1CC[C@H](C(=O)O)CC1 [Compound 171]
32 nM | COc1cc(-c2cccc(-c3cccc4c3cnn4Cc3nc(OC)c(CN(C)C45CCC(C(=O)O)(CC4)CC5)cc3Cl)c2Cl)cc(F)c1CNC[C@@H]1CCCC(=O)N1 [Compound 172]
222 nM | COc1cc(-c2cccc(-c3cccc4c3cnn4Cc3cc(N)c(CN(C)[C@H]4CC[C@H](C(=O)O)CC4)cc3Cl)c2Cl)cc(F)c1CNC[C@@H]1CCC(=O)N1 [Compound 173]
